Measured values taken from patent US20220154296A1, “USE OF ANTI-PD-1 ANTIBODY IN PREPARATION OF MEDICAMENT FOR TREATING SOLID TUMORS” (Shanghai Junshi Biosciences Co., Ltd., priority 2019, published 2022).

Test system: advanced ESCC
Experiment: Phase Ib/II clinical trial, anti-tumor activity study (RECIST v1.1), with biomarker subgroups
Assay type: in vivo, human
Procedure: From Mar. 9, 2017 to Aug.
PD-L1 was detected in formalin-fixed paraffin-embedded (FFPE) tumor tissue samples by immunohistochemistry (IHC) methods and verified on the VENTANA Benchmark Ultra system at the clinical center laboratory (Q2 laboratory, Beijing). The immunohistochemistry detection of PD-L1 was performed using the Spring Bioscience (Roche) rabbit anti-human PD-L1 monoclonal antibody (clone SP142, Cat No: M4422). The expression of PD-L1 on tumor cells (TCs) and tumor infiltrating immune cells (ICs) was assessed by certified pathologists using stained tumor tissue. The PD-L1 positive status is defined as the presence of tumor cells with membrane staining intensity ≥1% or the presence of PD-LI staining intensity of tumor infiltrating immune cells covering ≥1% of related, continuous pen-cancerous stromal tumor area in the tumor occupied by tumor cells.
During the clinical trial described in Example 1, tumor biopsy samples from 50 subjects were subjected to whole exome sequencing (WES). TMB was determined by analyzing somatic mutations within coding regions of the human genome.

[1] = 59 patients, investigator-assessed RECIST v1.1
[2] = patients with 11q13 amplification (n=24)
[3] = patients with low or no PD-L1 expression (5% cutoff)
[4] = patients without 11q13 amplification (n=26)
[5] = subjects with more than 5% PD-L1 expression
[6] = without vs. with 11q13 amplification

For “toripalimab: humanized IgG4 anti-PD-1 mAb comprising light and heavy chain amino acid sequences set forth in SEQ ID NOs: 9 and 10 (WO2014206107)”, the ORR confirmed (59 patients) was 15.3%, the DCR (59 patients, RECIST v1.1) was 47.5% and the Optimal response rate (59 patients, RECIST v1.1) was 18.6%. For the same substance, the CR [1] was 1 case, the “PR (including 2 cases of undiagnosed PR)” value [1] was 10 cases and the “Subjects who had died” value (59 subjects, as of Dec. 31, 2018) was 67.8%. For the same substance, the “Median PFS” value (PD-L1 negative subjects) was 2.0 months, the ORR (PD-L1 negative subjects) was 18.4% and the OS (PD-L1 negative subjects) was 6.9 months. For the same substance, the OS (PD-L1 positive patients) was 6.7 months, the ORR (PD-L1 positive patients (≥1% TC or IC, SP142 IHC)) was 15.8% and the “Median PFS” value (PD-L1 positive subjects) was 3.4 months. For the same substance, the OR (TMB equal to or greater than 12 mutations/Mb (n=11)) was 18.2%, the OR (TMB less than 12 mutations/Mb (n=36)) was 19.4% and the “Optimal response (%)” value (Total, 59 people) was 18.6%. For the same substance, the Mean response time (all patients) was 1.8 months, the “Median OS” value (all patients) was 6.9 months and the “Median PFS” value (all patients) was 2.1 months. The “Median duration of response” value (all patients) was 11.2 months, the “Subjects with arbitrary size reduction in target lesions relative to baseline” value (all patients) was 42.4% and the OS (high TMB (≥12)) was 11.5 months. The PFS (high TMB (≥12)) was 4.0 months, the OS (low TMB (<12)) was 6.7 months and the PFS (low TMB (<12)) was 1.9 months. For the same substance, the “Median OS” value (patients with 11q13 amplification) was 5.6 months, the Objective response rate [2] was 42 and the PFS [2] was 1.0 month. For the same substance, the DCR [3] was 42.3%, the ORR [3] was 15.4% and the “Median OS” value (patients without 11q13 amplification) was 11.5 months. The Objective response rate [4] was 30.8%, the PFS [4] was 3.7 months and the “Optimal response (%)” value (subgroup Age >60, 29 people) was 20.7%. For the same substance, the “Optimal response (%)” value (subgroup Age ≤60, 30 people) was 16.7%, the “Optimal response (%)” value (subgroup ECOG 0, 5 people) was 40.0% and the “Optimal response (%)” value (subgroup ECOG 1, 54 people) was 16.7%. For the same substance, the “Optimal response (%)” value (subgroup LDH >ULN, 14 people) was 28.6%, the “Optimal response (%)” value (subgroup LDH Normal, 45 people) was 15.6% and the “Optimal response (%)” value (subgroup Liver metastasis No, 43 people) was 18.6%. For the same substance, the “Optimal response (%)” value (subgroup Liver metastasis Yes, 16 people) was 18.8%, the “Optimal response (%)” value (subgroup Prior treatment 1, 13 people) was 15.4% and the “Optimal response (%)” value (subgroup Prior treatment 2, 19 people) was 15.8%. The “Optimal response (%)” value (subgroup Prior treatment 3+, 27 people) was 22.2%, the “Optimal response (%)” value (subgroup Sex Female, 7 people) was 14.3% and the “Optimal response (%)” value (subgroup Sex Male, 52 people) was 19.2%. The “Optimal response (%)” value (subgroup Tumor volume (baseline target lesion) >100 mm, 13 people) was 15.4%, the “Optimal response (%)” value (subgroup Tumor volume (baseline target lesion) ≤100 mm, 46 people) was 19.6% and the DCR [5] was 100%. The ORR [5] was 40%, the “HR for OS” value [6] was 0.60 and the “HR for PFS” value [6] was 0.47.
